Measured values from paper PMC12307812 (Nature Communications, 2025).
Like-named read-outs stand apart in the source and are kept apart here.

Assays:
[1] = test system: SARS-CoV-2 isolate hCoV-19/Germany/FI1103201/2020; assay: microbe, parasite or virus in culture; format: cell-based
[2] = test system: Calu-3 cells; assay: Analysis of cell viability (CellTiter-Glo); format: cell-based, human; conditions: 24 h, Supplementary Fig. S6
Experimental: Cells incubated with a medium containing DMSO (solvent) served as controls. Cell viability was assessed using the CellTiter-Glo® Luminescent Cell Viability Assay (Promega) according to the manufacturer’s instructions. Data normalization was performed as follows: cell viability in the absence of inhibitor (DMSO-only samples) was set as 100% and the relative viability of cells incubated with the respective inhibitor concentrations was calculated.

## CC(C)(C)NC(=O)N1CCN(C(=O)N2C(=O)C(CCCNC(=N)N)C2C(=O)O)CC1 (stereo not drawn) [BMS-262084]
[1]; Severe acute respiratory syndrome coronavirus 2, Calu-3, 24 h, read-out: IC50, relative infectivity of SARS-CoV-2
  IC50: 0.51 µM
[1]; Severe acute respiratory syndrome coronavirus 2, Calu-3 cells, Figure S5, read-out: IC50 estimate, SARS-CoV-2 entry inhibition
  IC50: 0.509 ± 0.146 µM
[2]
  cytotoxicity at concentrations used for preincubation: noncytotoxic
